Where two headings read alike, the source gives them in different places.
Assays:
TgCDPK1 = TgCDPK1 (Toxoplasma gondii, UniProt Q9BJF5); experiment: TgCDPK1 kinase assay, syntide-2 peptide-based ELISA; assay type: biochemical
[1] = system: T. gondii type I RH strain, 2F clone; experiment: Inhibition of parasite growth in vitro in HFF monolayers (beta-Gal readout); assay type: cell-based
Src = Src (Homo sapiens (Human), UniProt P12931); experiment: Src kinase inhibition; assay type: biochemical; design: Src % Inhibition: concentration or dose not given beside the values
[2] = Stability in rat liver microsomes; assay type: in vitro ADME; details: 1 mM NADPH, read-out: Microsome Half-Life
In vivo pharmacokinetics = details: iv, 3 mg/kg
[3] = Toxoplasma gondii, 72 h; read-out: Parasite Growth EC50

Src, sequence (P12931 whole entry, looked up): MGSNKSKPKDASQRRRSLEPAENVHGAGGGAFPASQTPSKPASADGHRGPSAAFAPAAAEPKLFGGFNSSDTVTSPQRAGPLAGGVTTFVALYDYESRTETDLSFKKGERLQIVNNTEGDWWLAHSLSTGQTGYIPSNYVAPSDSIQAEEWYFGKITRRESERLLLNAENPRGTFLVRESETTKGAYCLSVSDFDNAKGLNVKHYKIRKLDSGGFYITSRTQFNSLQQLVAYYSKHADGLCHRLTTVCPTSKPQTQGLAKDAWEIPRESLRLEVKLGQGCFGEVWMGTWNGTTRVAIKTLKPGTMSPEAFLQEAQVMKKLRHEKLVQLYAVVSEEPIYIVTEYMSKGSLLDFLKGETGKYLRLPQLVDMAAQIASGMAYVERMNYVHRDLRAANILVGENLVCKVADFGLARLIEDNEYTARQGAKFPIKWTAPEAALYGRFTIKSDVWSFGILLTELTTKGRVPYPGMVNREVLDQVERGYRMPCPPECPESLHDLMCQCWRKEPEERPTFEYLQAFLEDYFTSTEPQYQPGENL
TgCDPK1, sequence (Q9BJF5 1-507): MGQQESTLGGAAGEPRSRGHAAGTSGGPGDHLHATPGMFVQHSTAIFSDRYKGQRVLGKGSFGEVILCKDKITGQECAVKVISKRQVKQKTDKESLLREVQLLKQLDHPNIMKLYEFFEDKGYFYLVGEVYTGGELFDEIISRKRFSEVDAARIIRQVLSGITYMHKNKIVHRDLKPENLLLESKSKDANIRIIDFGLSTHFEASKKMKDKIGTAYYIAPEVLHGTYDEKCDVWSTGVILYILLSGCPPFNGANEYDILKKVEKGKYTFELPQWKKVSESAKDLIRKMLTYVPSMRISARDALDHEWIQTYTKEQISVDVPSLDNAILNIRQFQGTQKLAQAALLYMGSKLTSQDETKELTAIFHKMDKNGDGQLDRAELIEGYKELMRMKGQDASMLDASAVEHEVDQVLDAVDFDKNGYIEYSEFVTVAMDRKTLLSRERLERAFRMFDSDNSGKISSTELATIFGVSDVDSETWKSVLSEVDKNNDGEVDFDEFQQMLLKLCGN

Row | SMILES | Src % Inhibition (Src) [%] | also measured
1 | Nc1ncnc2c1c(Cc1c[nH]c3ccccc13)nn2CC1CCNCC1 [FUR6-95, 3-((1H-indol-3-yl)methyl)-1-(piperidin-4-ylmethyl)-1H-pyrazolo[3,4-d]pyrimidin-4-amine] | 92.70 | IC50 (TgCDPK1): 0.0239 µM; EC50 [1, 3]: > 10 µM; IC50 (Src): > 10 µM; half-life [2]: > 60 min
2 | CC(C)(C)n1nc(Sc2c[nH]c3ccccc23)c2c(N)ncnc21 [FUR6-159, 3-((1H-indol-3-yl)thio)-1-(tert-butyl)-1H-pyrazolo[3,4-d]pyrimidin-4-amine] | 97.66 | IC50 (TgCDPK1): 0.202 µM; EC50 [1, 3]: > 10 µM; IC50 (Src): > 10 µM; half-life [2]: 2.6 min
3 | CC(C)(C)n1nc(Oc2cccc(C(F)(F)F)c2)c2c(N)ncnc21 [GXJ178, 1-(tert-butyl)-3-(3-(trifluoromethyl)phenoxy)-1H-pyrazolo[3,4-d]pyrimidin-4-amine] | 79.53 | –
4 | CC(C)(C)n1nc(Oc2cc(F)cc(F)c2)c2c(N)ncnc21 [GXJ229, 1-(tert-butyl)-3-(3,5-difluorophenoxy)-1H-pyrazolo[3,4-d]pyrimidin-4-amine] | 87.48 | –
5 | Nc1ncnc2c1c(Sc1cccc(Cl)c1)cn2CC1CCNCC1 [FUR 6-139, 5-((3-chlorophenyl)thio)-7-(piperidin-4-ylmethyl)-7H-pyrrolo[2,3-d]pyrimidin-4-amine] | 97.49 | –
6 | Nc1ncnc2c1c(Cc1cc(F)cc(F)c1)nn2CC1CCNCC1 [MLC468, 3-(3,5-difluorobenzyl)-1-(piperidin-4-ylmethyl)-1H-pyrazolo[3,4-d]pyrimidin-4-amine] | 94.97 | –
7 | Cc1cccc(Sc2nn(CC3CCNCC3)c3ncnc(N)c23)c1 [FUR7-77, 1-(piperidin-4-ylmethyl)-3-(m-tolylthio)-1H-pyrazolo[3,4-d]pyrimidin-4-amine] | 80.21 | –
8 | CC(C)(C)n1nc(Cc2cccc(Cl)c2)c2c(N)ncnc21 [Compound 3CIB-PP1, 1-(tert-butyl)-3-(3-chlorobenzyl)-1H-pyrazolo[3,4-d]pyrimidin-4-amine, reference compound] | 18.48 | –
9 | Nc1ncnc2c1c(Oc1cccc(Cl)c1)nn2CC1CCOCC1 [FUR7-89, 3-(3-chlorophenoxy)-1-((tetrahydro-2H-pyran-4-yl)methyl)-1H-pyrazolo[3,4-d]pyrimidin-4-amine] | 77.33 | –
10 | Nc1ncnc2c1c(Oc1cccc(Cl)c1)nn2CC1CCNCC1(F)F (stereo not shown) [FUR7-27, 3-(3-chlorophenoxy)-1-((3,3-difluoropiperidin-4-yl)methyl)-1H-pyrazolo[3,4-d]pyrimidin-4-amine] | 87.87 | –
11 | CC(C)(C)n1nc(Cc2coc3ccccc23)c2c(N)ncnc21 [LJQ-145, 3-(benzofuran-3-ylmethyl)-1-(tert-butyl)-1H-pyrazolo[3,4-d]pyrimidin-4-amine] | 36.04 | IC50 (TgCDPK1): 0.0237 µM; EC50 [1, 3]: 2.03 µM; half-life [2]: 1.7 min
12 | CC(C)(C)n1nc(Oc2cccc(Br)c2)c2c(N)ncnc21 [GXJ177, 3-(3-bromophenoxy)-1-(tert-butyl)-1H-pyrazolo[3,4-d]pyrimidin-4-amine] | 73.35 | –
13 | COc1cccc(Oc2nn(C(C)(C)C)c3ncnc(N)c23)c1 [GXJ230, 1-(tert-butyl)-3-(3-methoxyphenoxy)-1H-pyrazolo[3,4-d]pyrimidin-4-amine] | 77.53 | –
14 | Nc1ncnc2c1c(Oc1cccc(Cl)c1)nn2Cc1ccncc1 [FUR6-6, 3-(3-chlorophenoxy)-1-(pyridin-4-ylmethyl)-1H-pyrazolo[3,4-d]pyrimidin-4-amine] | 93.91 | –
15 | Nc1ncnc2c1c(Oc1cccc(Cl)c1)nn2CC1CCNCC1 [GXJ237, 3-(3-chlorophenoxy)-1-(piperidin-4-ylmethyl)-1H-pyrazolo[3,4-d]pyrimidin-4-amine] | 87.87 | –
16 | Cc1cccc(Oc2nn(C(C)(C)C)c3ncnc(N)c23)c1 [GXJ176, 1-(tert-butyl)-3-(m-tolyloxy)-1H-pyrazolo[3,4-d]pyrimidin-4-amine] | 84.24 | –
17 | CC(C)(C)n1nc(Oc2cccc(Cl)c2)c2c(N)ncnc21 [GXJ184, 1-(tert-butyl)-3-(3-chlorophenoxy)-1H-pyrazolo[3,4-d]pyrimidin-4-amine] | 79.94 | Co (initial conc.) (In vivo pharmacokinetics): 5471.09 ng/mL
18 | CC(C)(C)n1nc(Nc2cccc(Cl)c2)c2c(N)ncnc21 [LZH118, 1-(tert-butyl)-N^3-(3-chlorophenyl)-1H-pyrazolo[3,4-d]pyrimidine-3,4-diamine] | 21.86 | –

Row | SMILES | Src % Inhibition (Src) [%] | also measured
19 | Nc1ncnc2c1c(Sc1c[nH]c3ccccc13)nn2CC1CCNCC1 [FUR 5-57, 3-((1H-indol-3-yl)thio)-1-(piperidin-4-ylmethyl)-1H-pyrazolo[3,4-d]pyrimidin-4-amine] | – | half-life [2]: 12 min
20 | CC(C)(C)n1nc(Cc2c[nH]c3ccccc23)c2c(N)ncnc21 [LJQ-138, 3-((1H-indol-3-yl)methyl)-1-(tert-butyl)-1H-pyrazolo[3,4-d]pyrimidin-4-amine] | 74.94 | IC50 (TgCDPK1): 0.0123 µM; EC50 [1, 3]: 0.177 µM; IC50 (Src): > 10 µM; half-life [2]: 2 min
21 | CN1CCC(Cn2nc(Oc3cccc(Cl)c3)c3c(N)ncnc32)CC1 [FUR7-30, 3-(3-chlorophenoxy)-1-((1-methylpiperidin-4-yl)methyl)-1H-pyrazolo[3,4-d]pyrimidin-4-amine] | 96.94 | –
22 | CC(C)(C)n1nc(Cc2csc3ccccc23)c2c(N)ncnc21 [CZ43, 3-(benzo[b]thiophen-3-ylmethyl)-1-(tert-butyl)-1H-pyrazolo[3,4-d]pyrimidin-4-amine] | 28.21 | IC50 (TgCDPK1): 0.00745 µM; EC50 [1, 3]: 0.135 µM; IC50 (Src): 0.014 µM; half-life [2]: 2.5 min
23 | Nc1ncnc2c1c(Oc1cccc(Cl)c1)nn2CC1(C(F)(F)F)CC1 [FUR7-2, 3-(3-chlorophenoxy)-1-((1-(trifluoromethyl)cyclopropyl)methyl)-1H-pyrazolo[3,4-d]pyrimidin-4-amine] | 91.63 | –
24 | Nc1ncnc2c1c(Cc1c[nH]c3ccccc13)nn2CC1(C(F)(F)F)CC1 [WXT-2, 3-((1H-indol-3-yl)methyl)-1-((1-(trifluoromethyl)cyclopropyl)methyl)-1H-pyrazolo[3,4-d]pyrimidin-4-amine] | 96.00 | IC50 (TgCDPK1): 0.0381 µM; EC50 ([1]; Toxoplasma gondii, 72 h, read-out: Parasite Growth EC50): 0.206 µM; IC50 (Src): > 10 µM; half-life [2]: 4.7 min
25 | Cc1cccc(Sc2nn(C(C)(C)C)c3ncnc(N)c23)c1 [FUR7-68, 1-(tert-butyl)-3-(m-tolylthio)-1H-pyrazolo[3,4-d]pyrimidin-4-amine] | 64.39 | IC50 (TgCDPK1): 0.0229 µM; EC50 [1, 3]: 0.376 µM; IC50 (Src): > 10 µM; half-life [2]: 1 min
26 | Nc1ncnc2c1c(Nc1cccc(Cl)c1)nn2CC1CCNCC1 [GXJ276, N^3-(3-chlorophenyl)-1-(piperidin-4-ylmethyl)-1H-pyrazolo[3,4-d]pyrimidine-3,4-diamine] | 24.50 | –
27 | Nc1ncnc2c1c(Oc1cccc(Cl)c1)nn2CC1CNC1 [FUR6-12, 1-(azetidin-3-ylmethyl)-3-(3-chlorophenoxy)-1H-pyrazolo[3,4-d]pyrimidin-4-amine] | 91.81 | –
28 | Nc1ncnc2c1c(Oc1cccc(Cl)c1)nn2CC1CCNC1 (stereo not shown) [FUR6-13, 3-(3-chlorophenoxy)-1-(pyrrolidin-3-ylmethyl)-H-pyrazolo[3,4-d]pyrimidin-4-amine] | 99.50 | –
29 | CC(C)(C)n1nc(Cc2cc(F)cc(F)c2)c2c(N)ncnc21 [CZ75, 1-(tert-butyl)-3-(3,5-difluorobenzyl)-1H-pyrazolo[3,4-d]pyrimidin-4-amine] | 91.31 | –
30 | Nc1ncnc2c1c(Sc1cccc(Cl)c1)nn2CC1CCNCC1(F)F (stereo not shown) [FUR 7-76] | 76.47 | –
31 | Nc1ncnc2c1c(Oc1cccc(Cl)c1)nn2CC1CCCNC1 (stereo not shown) [FUR6-11, 3-(3-chlorophenoxy)-1-(piperidin-3-ylmethyl)-1H-pyrazolo[3,4-d]pyrimidin-4-amine] | 90.05 | –
32 | Nc1ncnc2c1c(Oc1ccc(F)c(Cl)c1)nn2CC1CCNCC1 [GXJ261, 3-(3-chloro-4-fluorophenoxy)-1-(piperidin-4-ylmethyl)-1H-pyrazolo[3,4-d]pyrimidin-4-amine] | 78.16 | –
33 | Nc1ncnc2c1c(Cc1cccc(Cl)c1)nn2CC1CCNCC1 [FUR6-157, 3-(3-chlorobenzyl)-1-(piperidin-4-ylmethyl)-1H-pyrazolo[3,4-d]pyrimidin-4-amine] | 87.11 | –
34 | Nc1ncnc2c1c(Sc1cccc(Cl)c1)nn2CC1CCNCC1 [FUR 5-56] | 102.82 | –
35 | CC(C)(C)n1nc(Sc2cccc(Cl)c2)c2c(N)ncnc21 [GXJ186, 1-(tert-butyl)-3-((3-chlorophenyl)thio)-1H-pyrazolo[3,4-d]pyrimidin-4-amine] | 72.84 | –
36 | Nc1ncnc2c1c(Oc1cccc(Cl)c1)nn2CC1CCNC(=O)C1 (stereo not shown) [FUR7-36, 4-((4-amino-3-(3-chlorophenoxy)-1H-pyrazolo[3,4-d]pyrimidin-1-yl)methyl)piperidin-2-one] | 96.13 | –

From US11208411B2, “Compositions and methods for treating parasitic diseases” (THE REGENTS OF THE UNIVERSITY OF CALIFORNIA, priority 2016, dated 2021)
